Source: US5449662A, “Atrial natriuretic peptide clearance inhibitors which resist degradation” (Scios Nova Inc., priority 1992, dated 1995)
pIC50, pKi: −log10 of the molar value. Numbered stars: 1 amine (or outer) side, 2 acyl side, 3 side chain; on linkers, the order of the positions; unused ones are H or OH. Square brackets hold non-standard residues; d marks the D form. Peptide text beside a SMILES is read from it. * marks the point of attachment. X4 = O=C(NO)C(Cc1ccccc1)N(CC(=O)[*:2])[*:1]; γGlu = O=C(O)[C@H](CCC(=O)[*:2])N[*:1]; X2 = O=C(Cc1ccc(N[*:1])cc1)[*:2]; X3 = O=C(O)C(Cc1ccccc1)NCCC(=O)*; X1 = O=C(C(CS)Cc1ccccc1)*

What was measured:
[1] = target: T1, ANP clearance receptor on bovine aortic smooth muscle (BASM) cells (Bos taurus, UniProt P10730); assay: BASM receptor binding assay (competition with I125 labeled rANP(102-126)); conditions: read-out: Ki(app)
T1 construct: endogenous in cells; host or cells: bovine aortic smooth muscle (BASM) cells
T1 sequence (P10730 42-537): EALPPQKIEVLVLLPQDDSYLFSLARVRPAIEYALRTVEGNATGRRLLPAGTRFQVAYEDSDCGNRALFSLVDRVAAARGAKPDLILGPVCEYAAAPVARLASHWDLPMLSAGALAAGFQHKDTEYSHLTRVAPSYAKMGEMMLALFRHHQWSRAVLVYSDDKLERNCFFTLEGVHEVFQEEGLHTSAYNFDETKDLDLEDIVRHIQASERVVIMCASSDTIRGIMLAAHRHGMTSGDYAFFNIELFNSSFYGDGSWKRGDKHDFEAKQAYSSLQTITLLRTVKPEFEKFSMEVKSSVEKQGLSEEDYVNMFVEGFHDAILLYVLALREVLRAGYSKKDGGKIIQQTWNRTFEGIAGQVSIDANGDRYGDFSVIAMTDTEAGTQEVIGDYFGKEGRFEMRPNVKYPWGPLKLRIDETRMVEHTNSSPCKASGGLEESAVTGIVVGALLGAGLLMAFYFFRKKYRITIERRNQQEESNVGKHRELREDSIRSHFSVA
Source text: (§1) The assay systems used are adapted from those of Schenk, D. B., et al, Biochem Biophys Res Commun (1985) 127:433-442 and Scarborough, R. M., J Biol Chem (1986) 261:12960-12964. These assays measure clearance receptor binding affinity through competition with ANP using the receptors on bovine aortic smooth muscle (BASM) or bovine aortic endothelial (BAE) cells. Also employed is the receptor binding affinity assay for the clearance receptor in isolated perfused rat kidney as described by Maack, T., et al, Science (1987) 238:675-679.

[2] = target: T2, Endopeptidase 24.11 (Rattus norvegicus, UniProt P07861); assay: Inhibition of endopeptidase 24.11 (cleavage of rANP(99-126), HPLC); assay type: biochemical; conditions: for inhibition at 10 µM / inhibition at 0.02 µM / inhibition at 0.1 µM / inhibition at 1 µM: read-out: % Inhibition of Metabolite Formation; for inhibition at 0.02 µM: 20 nM; for inhibition at 0.1 µM: 100 nM
T2 construct: rat urine was collected and desalted on Sephadex G-25; from tissue; host or cells: rat urine, desalted on Sephadex G-25
T2 sequence (P07861 1-750): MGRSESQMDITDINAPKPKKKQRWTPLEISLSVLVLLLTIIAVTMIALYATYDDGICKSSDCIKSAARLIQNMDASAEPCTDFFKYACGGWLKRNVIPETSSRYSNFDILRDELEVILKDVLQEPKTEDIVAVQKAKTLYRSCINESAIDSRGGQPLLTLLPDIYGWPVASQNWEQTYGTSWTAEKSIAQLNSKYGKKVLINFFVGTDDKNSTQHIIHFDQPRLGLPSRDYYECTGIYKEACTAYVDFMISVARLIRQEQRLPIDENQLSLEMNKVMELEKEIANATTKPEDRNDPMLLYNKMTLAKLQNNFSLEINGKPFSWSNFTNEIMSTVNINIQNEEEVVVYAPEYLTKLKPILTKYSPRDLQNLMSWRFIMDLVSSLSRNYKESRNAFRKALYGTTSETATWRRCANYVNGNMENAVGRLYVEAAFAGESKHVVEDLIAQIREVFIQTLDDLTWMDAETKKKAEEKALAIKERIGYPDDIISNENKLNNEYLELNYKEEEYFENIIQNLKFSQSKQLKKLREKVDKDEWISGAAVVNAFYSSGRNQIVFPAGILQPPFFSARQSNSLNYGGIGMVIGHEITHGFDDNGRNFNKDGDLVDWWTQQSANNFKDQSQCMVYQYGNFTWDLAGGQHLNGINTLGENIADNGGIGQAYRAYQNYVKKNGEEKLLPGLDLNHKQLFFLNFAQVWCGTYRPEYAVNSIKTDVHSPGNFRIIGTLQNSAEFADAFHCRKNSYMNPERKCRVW
Description: Endopeptidase 24.11 inactivates ANP by cleavage at the Cys^105 -Phe^106 amide bond. The ability of the compounds of the invention to inhibit this degradation was assayed by a modification of the procedure of Ura, N., et al, Kidney Int (1987) 32:507-513 by substituting rANP(99-126) for bradykinin as a substrate.
Briefly, rat urine was collected and desalted on Sephadex G-25 as described by Ura (supra) and 4 ul of sample in 100 ul 0.1M Tris buffer, pH 7.2 containing aminopeptidase inhibitor bestatin (10 ug/ml), potato tuber carboxy peptidase inhibitor (10 ug/ml) and aprotinin (5,000 kalikrein inhibitory unit/ml) were incubated for 15 min at 37° C. The assay was then initiated by addition of 2-10 ug rANP(99-126) to a final volume of 0.5 ml and incubated at 10-20 min at 37° C. Termination of the reaction was accomplished by boiling, spinning and freezing.
Compounds to be tested for their ability to inhibit the endopeptidase were added to the preincubation mixture 15 min before addition of substrate.
The frozen samples, incubated with or without inhibitor, were thawed and analyzed by HPLC to determine the concentration of starting rANP(99-126) and its degradation product. HPLC analysis was conducted on Vydac C18 reverse phase HPLC column (4.6 mm ID×12.5 cm; 5 uM, 300A). A linear gradient of 15-35% acetonitrile containing 0.1% TFA was run at 1.0 ml/min on a Perkin-Elmer series 4 HPLC system. The effluent was monitored at 220 nm and the peptide peak heights measured.
The results were computed as the percent of the Cys^105 -Phe^106 cleavage metabolite peak in the test sample as compared to the peak height for this metabolite in the control.

[3] = target: T3, clearance receptor in isolated perfused rat kidney (Rattus norvegicus, UniProt P41740); assay: Rat kidney receptor binding assay (isolated perfused rat kidney); conditions: labeled compound 4 × 10^-12 M + competitor 1 × 10^-6 M; n = 2
T3 construct: the clearance receptor in isolated perfused rat kidney; from tissue; host or cells: isolated perfused rat kidney
T3 sequence (P41740 41-535): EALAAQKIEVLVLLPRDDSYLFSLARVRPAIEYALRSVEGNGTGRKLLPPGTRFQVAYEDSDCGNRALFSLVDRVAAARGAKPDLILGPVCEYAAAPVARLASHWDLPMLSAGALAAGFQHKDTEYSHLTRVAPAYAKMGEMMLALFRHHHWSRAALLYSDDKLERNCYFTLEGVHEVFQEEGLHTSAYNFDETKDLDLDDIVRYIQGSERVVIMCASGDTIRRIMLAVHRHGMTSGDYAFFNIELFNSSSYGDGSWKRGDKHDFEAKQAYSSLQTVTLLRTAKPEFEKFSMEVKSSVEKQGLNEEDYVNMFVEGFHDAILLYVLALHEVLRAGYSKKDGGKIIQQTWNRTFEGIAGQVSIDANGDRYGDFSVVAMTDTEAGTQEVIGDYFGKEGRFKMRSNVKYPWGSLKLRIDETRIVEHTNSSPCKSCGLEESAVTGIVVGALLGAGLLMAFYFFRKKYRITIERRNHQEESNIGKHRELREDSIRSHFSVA
Source text: as §1
In the rat kidney receptor binding assay, the native 28-residue labeled ANP was used: I^125 labeled rANP(99-126), with the label linked to tyrosine at 126. The results of this assay are shown in Table 2 as the ratio of bound-to-free labeled rANP(99-126) in the presence and absence of competing compound.

With `CC[C@H](C)[C@H](NC(=O)[C@H](CCCNC(=N)N)NC(=O)[C@H](CC(=O)O)NC(=O)[C@@H](NC(=O)[C@H](CCCNC(=N)N)NC(=O)CNC(=O)CCNC(Cc1ccccc1)C(=O)O)[C@@H](C)CC)C(N)=O` (some centres unmarked) [Analog 427] (X3-GRIDRI-NH2) the pKi [1] was 7.94.
Work on `CC[C@H](C)[C@H](NC(=O)[C@H](CCCNC(=N)N)NC(=O)[C@H](CC(=O)O)NC(=O)[C@@H](NC(=O)[C@H](CCCNC(=N)N)NC(=O)CNC(=O)CNC(=O)[C@H](Cc1ccccc1)NC(Cc1ccccc1)C(=O)O)[C@@H](C)CC)C(N)=O` (some centres unmarked) [Analog 436] yielded a pKi [1] of 7.56.
`CC[C@H](C)[C@H](NC(=O)[C@H](CCCNC(=N)N)NC(=O)[C@H](CC(=O)O)NC(=O)[C@@H](NC(=O)[C@H](CCCNC(=N)N)NC(=O)Cc1ccc(NC(=O)[C@H](Cc2ccccc2)NC(Cc2ccccc2)C(=O)O)cc1)[C@@H](C)CC)C(N)=O` (stereo partly drawn) [Analog 445, F[N]F-4-APA-R-I-D-R-I-NH2] showed an inhibition at 10 µM [2] of 0% and a pKi [1] of 8.19.
`CC[C@H](C)[C@H](NC(=O)[C@H](CCCNC(=N)N)NC(=O)[C@H](CC(=O)O)NC(=O)[C@@H](NC(=O)[C@H](CCCNC(=N)N)NC(=O)CNC(=O)CNC(Cc1ccccc1)C(=O)NO)[C@@H](C)CC)C(N)=O` (some centres unmarked) [Analog 702] (H-[X4]GRIDRI-NH2) was tested, and the pKi [1] was 8.34.
`CC[C@H](C)[C@H](NC(=O)[C@H](CCCNC(=N)N)NC(=O)[C@H](CC(=O)O)NC(=O)[C@@H](NC(=O)[C@H](CCCNC(=N)N)NC(=O)Cc1ccc(NC(=O)C(CS)Cc2ccccc2)cc1)[C@@H](C)CC)C(N)=O` (stereo partly drawn) [Analog 122, MBP-4-APA--R--I--D--R--I--NH2] (X1-[X2]RIDRI-NH2) was tested, and the inhibition at 0.02 µM [2] was 12%, the inhibition at 0.1 µM [2] was 25% and the inhibition at 1 µM [2] was 72%. The inhibition at 10 µM [2] was 97% and the pKi [1] was 7.96.
With `CC[C@H](C)[C@H](NC(=O)[C@H](CCCNC(=N)N)NC(=O)[C@H](CC(=O)O)NC(=O)[C@@H](NC(=O)[C@H](CCCNC(=N)N)NC(=O)CNC(=O)[C@H](CC(=O)O)NC(=O)C(CS)Cc1ccccc1)[C@@H](C)CC)C(N)=O` (some centres unmarked) [Analog 12] (X1-DGRIDRI-NH2) the pKi [1] was 6.68.
Work on `CC[C@H](C)[C@H](NC(=O)[C@H](CCCNC(=N)N)NC(=O)[C@H](CC(=O)O)NC(=O)[C@@H](NC(=O)[C@H](CCCNC(=N)N)NC(=O)CC[C@H](NC(=O)C(CS)Cc1ccccc1)C(=O)O)[C@@H](C)CC)C(N)=O` (some centres unmarked) [Analog 78] ({X1-γGlu}-RIDRI-NH2) yielded a pKi [1] of 6.70.
For “rANP(99-126): native 28-residue rat ANP, unlabeled competitor in the rat kidney binding assay [reference compound]”, the “Ratio of Bound/Free (125I)rANP(99-126), Whole Kidney” value [3] was 0.56.
Work on `CC(C)C[C@H](NP(=O)(O)O[C@@H]1O[C@@H](C)[C@H](O)[C@@H](O)[C@H]1O)C(=O)N[C@@H](Cc1c[nH]c2ccccc12)C(=O)O` [Phosphoramidon, phosphoramidon, reference compound] yielded an inhibition at 0.02 µM [2] of 0%, an inhibition at 0.1 µM [2] of 30% and an inhibition at 1 µM [2] of 80%. The inhibition at 10 µM [2] was 97%.
In the case of `CC[C@H](C)[C@H](NC(=O)[C@H](CCCNC(=N)N)NC(=O)[C@H](CC(=O)O)NC(=O)[C@@H](NC(=O)[C@H](CCCNC(=N)N)NC(=O)CC[C@H](NC(=O)[C@H](Cc1ccccc1)NC(CCc1ccccc1)C(=O)O)C(=O)O)[C@@H](C)CC)C(N)=O` (some centres unmarked) [Analog 544], the pKi [1] was 7.24.
`CC[C@H](C)[C@H](NC(=O)[C@H](CCCNC(=N)N)NC(=O)[C@H](CC(=O)O)NC(=O)[C@@H](NC(=O)[C@H](CCCNC(=N)N)NC(=O)CNC(=O)[C@H](CC(=O)O)NC(=O)[C@H](Cc1ccccc1)NC(Cc1ccccc1)C(=O)O)[C@@H](C)CC)C(N)=O` (some centres unmarked) [Analog 463] showed a pKi [1] of 6.65.
`CC[C@H](C)[C@H](NC(=O)[C@H](CCCNC(=N)N)NC(=O)[C@H](CC(=O)O)NC(=O)[C@@H](NC(=O)[C@H](CCCNC(=N)N)NC(=O)CNC(=O)CNC(=O)C(CS)Cc1ccccc1)[C@@H](C)CC)C(N)=O` (stereo partly drawn) [Analog 1, MBP-G-G-R-I-D-R-I-NH2] (X1-GGRIDRI-NH2) was tested, and the inhibition at 0.02 µM [2] was 0%, the inhibition at 0.1 µM [2] was 23% and the inhibition at 1 µM [2] was 45%. For the same compound, the inhibition at 10 µM [2] was 92%, the pIC50 ([2]; approximate, from Table 3, read-out: ED50 of inhibition) was roughly 6.00 and the pKi [1] was 7.71.
In the case of “F--[N]--F--G--G--R--I--D--R--I--NH2 [Analog 436]”, the “Ratio of Bound/Free (125I)rANP(99-126), Whole Kidney” value [3] was 1.31.
Work on `CC[C@H](C)[C@H](NC(=O)[C@H](CCCNC(=N)N)NC(=O)[C@H](CC(=O)O)NC(=O)[C@@H](NC(=O)[C@H](CCCNC(=N)N)NC(=O)CNC(=O)CNC(Cc1ccccc1)C(=O)O)[C@@H](C)CC)C(N)=O` (some centres unmarked) [Analog 364] yielded a pKi [1] of 7.17.
In the case of `O=C(O)CNC(=O)C(CS)Cc1ccccc1` (centres unmarked) [Thiorphan, thiorphan, reference compound], the inhibition at 0.02 µM [2] was 12%, the inhibition at 0.1 µM [2] was 53% and the inhibition at 1 µM [2] was 67%. For the same compound, the inhibition at 10 µM [2] was 92%.
For `CC[C@H](C)[C@H](NC(=O)[C@H](CCCNC(=N)N)NC(=O)[C@H](CC(=O)O)NC(=O)[C@@H](NC(=O)[C@H](CCCNC(=N)N)NC(=O)CNC(=O)[C@@H](CC(=O)O)NC(=O)C(CS)Cc1ccccc1)[C@@H](C)CC)C(N)=O` (some centres unmarked) [Analog 23] (X1-[dD]GRIDRI-NH2), the pKi [1] was 6.94.
